Biological target: T1, MeCP2-TBL1 interaction (MeCP2-SmBiT / TBL1-LgBiT) (Mus musculus, UniProt Q9QXE7)
T1 construct: expressed in transfected cells; crude lysate used as a cell-free assay
T1 sequence (Q9QXE7 166-527): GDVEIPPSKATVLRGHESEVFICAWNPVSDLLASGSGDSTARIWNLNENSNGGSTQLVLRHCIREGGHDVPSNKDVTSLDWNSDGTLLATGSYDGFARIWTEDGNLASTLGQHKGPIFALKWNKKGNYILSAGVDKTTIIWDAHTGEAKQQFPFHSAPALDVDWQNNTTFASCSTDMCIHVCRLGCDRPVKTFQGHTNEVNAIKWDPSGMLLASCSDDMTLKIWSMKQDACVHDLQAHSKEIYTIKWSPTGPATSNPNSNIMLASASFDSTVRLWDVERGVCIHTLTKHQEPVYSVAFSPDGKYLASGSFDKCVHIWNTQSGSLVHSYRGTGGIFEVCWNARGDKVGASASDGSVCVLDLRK
Assay: MeCP2-TBL1 NanoLuc luciferase complementation assay (cell-free, extracts of transfected HEK293 cells);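 note: each compound tested at 20 µM final concentration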
Assay type: binding, human
Conditions: primary screen of Asinex library, single well per compound
In short: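 Cell-free split NanoLuc: lysate of HEK293 cells co-expressing the MeCP2 C-terminal half-SmBiT and TBL1 WD domain-LgBiT, mixed 1:1 with furimazine. After 30 min at room temperature, luminescence was plate-median normalized.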

| SMILES | Inhibition percent |
| --- | --- |
| Cc1cc(C)nc(NCCCC(=O)N2[C@H](Cc3ccccc3)C[C@]3(C)NC(=O)CCC[C@H]23)n1 [BDG_24639132] | -1.41 |
| CC(=O)N[C@H]1C[C@@H](C(=O)N(C)C)N(C(=O)CCCn2c(C)nc3ccccc32)[C@H]1c1ccccc1 [BDG_33630230] | -0.15 |
| CC(=O)N[C@H]1C[C@@H](C(=O)N(C)C)N(C(=O)CCn2cnc3ccccc32)[C@H]1c1ccccc1 [BDG_33631962] | 5.65 |
| CCOc1cccc2c1OC(C)(C)[C@H]1CC3(CCN(Cc4cnc(NC)nc4)CC3)CO[C@H]21 [BDG_33691710] | -4.17 |
| COc1ccc2c(c1)OC(C)(C)[C@H]1CC3(CCN(C(=O)CCn4ccnc4)CC3)CO[C@H]21 [BDG_33691777] | -0.71 |
| CC1(C)Oc2ccc(Cl)cc2[C@H]2OCC3(CCN(C(=O)CNC(=O)c4ccccc4)CC3)C[C@@H]21 [BDG_33694526] | -2.33 |
| COc1cccc2c1OC(C)(C)[C@H]1CC3(CCN(C(=O)CCCN4C(=O)CNC4=O)CC3)CO[C@H]21 [BDG_33695254] | -4.47 |
| CC1(C)Oc2ccccc2[C@H]2OCC3(CCN(C(=O)c4ccnc(N5CCCC5)c4)CC3)C[C@@H]21 [BDG_33695760] | 0.33 |
| CCN(CC)S(=O)(=O)N1CCC2(C/C=C/Cc3ccccc3OCC(=O)NC2)CC1 [BDG_33697034] | 1.72 |
| Cc1cc(C)n(CCCC(=O)N2CCCC[C@]3(C)NC(=O)CC[C@H]23)n1 [BDG_33850399] | 0.88 |

Second part, the compound after the results:

| Inhibition percent | SMILES |
| --- | --- |
| -2.99 | C[C@@]12C[C@H]3[C@@H](Cc4ccccc4)N[C@@H]1CCC[C@@H]2N3C(=O)c1cccc(Cc2ccccc2F)n1 [BDG_33393042] |
| 1.00 | C[C@]12C[C@@H]3N[C@H]1CCCC[C@H]2N(C(=O)COc1ccc(F)cc1F)[C@H]3Cc1ccccc1 [BDG_33505865] |
| 0.80 | C[C@]12C[C@@H](Cc3ccccc3)N(C(=O)CCNC(=O)c3cccnc3)[C@H]1CCCC(=O)N2 [BDG_33627395] |

Same assay, conditions: primary screen of the Asinex library, sheet "Sargen output Asinex library", one well per compound

| SMILES | Inhibition percent |
| --- | --- |
| CC(=O)N[C@@]12CCN(CCOc3ccc(F)cc3)C[C@@H]1[C@@H](c1ccccc1)N(C(C)=O)C2 [BDG_30283198] | -0.86% |
| COc1ccc2c(c1)[C@H]1OCC3(CCN(Cc4cnccn4)CC3)C[C@@H]1C(C)(C)O2 [BDG_33690689] | -2.69% |
| Cc1cnc(C(=O)N2CCC3(CC2)CO[C@@H]2c4ccc(O)cc4OC(C)(C)[C@H]2C3)cn1 [BDG_33691581] | 1.04% |
| COc1cccc2c1OC(C)(C)[C@H]1CC3(CCN(C(=O)CCCc4ccncc4)CC3)CO[C@H]21 [BDG_33693373] | -2.47% |
| Cc1n[nH]c(C)c1S(=O)(=O)N1CCC2(CC1)CO[C@@H]1c3ccccc3OC(C)(C)[C@H]1C2 [BDG_33694386] | 2.05% |
| COc1cccc2c1OC(C)(C)[C@H]1CC3(CO[C@H]21)CN(Cc1cn(C)cn1)C3 [BDG_33739186] | -0.50% |
| CC(C)(C)OC(=O)N1CC[C@H]2O[C@H]3c4ccccc4OC(C)(C)[C@@H]3C[C@@]2(CO)C1 [BDG_33896521] | 3.83% |
| COc1cccc2c1OC1(CCN(C)CC1)[C@H]1CCCO[C@H]21 [BDG_33900051] | -1.32% |
| Oc1cccc2c1OC1(CCN(Cc3ccncc3)CC1)[C@H]1CCCO[C@H]21 [BDG_33900152] | -3.60% |
| COC(C)(C)C(=O)N1CCC2(CC1)Oc1c(O)cccc1[C@H]1OCCC[C@@H]12 [BDG_33900229] | -2.79% |

Second part, the compound after the results:

| Inhibition percent | SMILES |
| --- | --- |
| -2.30% | CN(CCC(=O)N1[C@H](Cc2ccccc2)C[C@]2(C)NC(=O)CCC[C@H]12)Cc1ccccn1 [BDG_24639113] |
| 5.29% | C[C@]12C[C@@H]3N[C@H]1CCC[C@H]2N(C(=O)c1cccc(Cc2ccccc2F)n1)[C@H]3Cc1ccccc1 [BDG_33393043] |
| 3.67% | COc1cccc(-c2cc(C(=O)N3[C@H]4CCC[C@H]5N(C)[C@H](Cc6ccccc6)[C@@H]3C[C@@]45C)on2)c1 [BDG_33506470] |
| -1.21% | Cc1nc(-c2cccnc2)sc1C(=O)N1[C@H]2CCC[C@H]3N[C@H](Cc4ccccc4)[C@@H]1C[C@@]23C [BDG_33506581] |
| 3.50% | CC(=O)N1[C@@H](Cc2ccccc2)[C@@H]2C[C@@]3(C)[C@H](CCCC[C@@H]13)N2Cc1ccc(OCC(=O)O)cc1 [BDG_33507682] |
| -2.00% | CCc1nccn1-c1ccc(C(=O)N2[C@H]3CCC[C@H]4N[C@@H](Cc5ccccc5)[C@@H]2C[C@@]34C)cn1 [BDG_33507727] |
| -2.32% | CN(CCC(=O)N1[C@H](Cc2ccccc2)C[C@]2(C)NC(=O)CCC[C@H]12)Cc1cccnc1 [BDG_33630477] |

Same assay, conditions: primary screen of the Asinex library, sheet "Sargen output Asinex library", one well per compound, Batch Ref. 1

| SMILES | Inhibition percent |
| --- | --- |
| Cn1c(CCC(=O)N2CC[C@@H]3[C@H]2CCCC(=O)N3Cc2ccc(F)cc2)nc2ccccc21 [BDG_23960040] | 1.86% |
| O=C1CCC[C@H]2[C@@H](C[C@@H](c3cccc(C(F)(F)F)c3)N2C(=O)CCc2ccccc2)N1 [BDG_27570843] | 0.77% |
| O=C(COc1ncnc2ccccc12)N1C[C@@H]2CC[C@H](Oc3ccc(Cl)cc3)[C@@H]2C1 [BDG_33516371] | 0.45% |
| CN(C)[C@@H]1C[C@@H](C(N)=O)N(CC(=O)Nc2ccc(Oc3ccccc3)cc2)[C@H]1c1ccccc1 [BDG_33626169] | 3.84% |
| C[C@]12C[C@@H](Cc3ccccc3)N(C(=O)CCCNc3ncnc4ccccc34)[C@H]1CCCC(=O)N2 [BDG_33628681] | -1.67% |
| COc1ccc2c(c1)[C@H]1OCC3(CCN(S(C)(=O)=O)CC3)C[C@@H]1C(C)(C)O2 [BDG_33690555] | -0.51% |
| CC1(C)Oc2cc(O)ccc2[C@H]2OCC3(CCN(C(=O)c4ncccc4O)CC3)C[C@@H]21 [BDG_33691662] | -1.26% |
| CCc1cc(C(=O)N2CCC3(CC2)CO[C@@H]2c4cc(OC)ccc4OC(C)(C)[C@H]2C3)no1 [BDG_33691868] | 2.32% |
| Cc1ccc2c(c1)OC(C)(C)[C@H]1CC3(CCN(C(=O)CN4CCOCC4)CC3)CO[C@H]21 [BDG_33692107] | -1.45% |
| CC1(C)Oc2ccccc2[C@H]2OCC3(CCN(C(=O)CCc4cccnc4)CC3)C[C@@H]21 [BDG_33692190] | -1.50% |
| CC1(C)Oc2ccccc2[C@H]2OCC3(CCN(C(=O)c4[nH]nc5c4CCCCC5)CC3)C[C@@H]21 [BDG_33694755] | 2.01% |
| CC1(C)Oc2ccccc2[C@H]2OCC3(CCN(C(=O)c4cccc(-n5cnnc5)c4)CC3)C[C@@H]21 [BDG_33695504] | 0.97% |
| COCC(=O)N1CC2(CO[C@@H]3c4cccc(OC)c4OC(C)(C)[C@H]3C2)C1 [BDG_33739062] | -2.32% |
| Cc1cccnc1C(=O)N1CC2(CO[C@@H]3c4ccccc4OC(C)(C)[C@H]3C2)C1 [BDG_33739514] | 0.31% |
| Cc1ccc2c(c1)OC(C)(C)[C@H]1CC3(CO[C@H]21)CN(C(=O)CCn1nc(O)ccc1=O)C3 [BDG_33741109] | -2.39% |
| CN(CCOc1ccccc1)C(=O)c1c(O)ccc2c1O[C@@H]1C[C@H]3C[C@H](C3(C)C)[C@]1(O)[C@H]2O [BDG_33899827] | 2.70% |
| Oc1cccc2c1OC1(CCN(Cc3ccccc3)CC1)[C@H]1CCCO[C@H]21 [BDG_33900148] | 0.73% |
| Cc1ccc2c(c1)OC1(CCN(Cc3cscn3)CC1)[C@H]1CCCO[C@H]21 [BDG_33900204] | 4.69% |

The remaining lines, values ahead:

| Inhibition percent | SMILES |
| --- | --- |
| -0.20% | C[C@]12C[C@@H]3N[C@H]1CCC[C@H]2N(Cc1ccccc1C(=O)O)[C@H]3Cc1ccccc1 [BDG_33391350] |
| 4.10% | C[C@]12C[C@@H]3N[C@H]1CCC[C@H]2N(C(=O)COc1ccccc1F)[C@H]3Cc1ccccc1 [BDG_33391690] |
| 1.11% | C[C@@]12C[C@H]3[C@H](Cc4ccccc4)N[C@@H]1CCCC[C@@H]2N3C(=O)CNC(=O)c1ccccc1 [BDG_33503003] |
| 3.61% | CC(=O)N1[C@H](Cc2ccccc2)[C@@H]2C[C@@]3(C)[C@H](CCC[C@@H]13)N2C(=O)CNC(=O)c1ccccc1 [BDG_33503016] |
| 2.88% | COc1ccccc1OCC(=O)N1[C@@H](Cc2ccccc2)[C@@H]2C[C@@]3(C)[C@H](CCC[C@@H]13)N2 [BDG_33503207] |
| 8.58% | COc1cccc(-c2cc(C(=O)N3[C@H]4CCC[C@H]5N(C)[C@@H](Cc6ccccc6)[C@@H]3C[C@@]45C)[nH]n2)c1 [BDG_33504530] |
| 0.85% | C[C@@]12C[C@H]3[C@@H](Cc4ccccc4)N[C@@H]1CCCC[C@@H]2N3C(=O)CNC(=O)c1cncc(O)c1 [BDG_33504652] |
| 12.86% | CCOc1ccc(-c2cc(C(=O)N3[C@@H](Cc4ccccc4)[C@@H]4C[C@@]5(C)[C@H](CCC[C@@H]35)N4)[nH]n2)cc1 [BDG_33504765] |
| -0.84% | C[C@@]12C[C@H]3[C@H](Cc4ccccc4)N[C@@H]1CCCC[C@@H]2N3C(=O)COc1ccccc1 [BDG_33505297] |
| -1.87% | C[C@@]12C[C@H]3[C@H](Cc4ccccc4)N[C@@H]1CCC[C@@H]2N3C(=O)c1ccnc(Cc2ccccc2F)c1 [BDG_33507770] |
| -0.52% | Cn1c(COCC(=O)N2[C@H](Cc3ccccc3)C[C@]3(C)NC(=O)CCC[C@H]23)nc2ccccc21 [BDG_33628430] |
| -3.82% | Cc1cccc(NC(=O)CCCC(=O)N2[C@H](Cc3ccccc3)C[C@]3(C)NC(=O)CCC[C@H]23)n1 [BDG_33629701] |
